Patent US20250161245A1, “A MIXTURE OF UREA, BIURET AND N-CONTAINING BY-PRODUCTS CREATED DURING BIURET PRODUCTION AS A DIETARY NON-PROTEIN NITROGEN-SOURCE FOR RUMINANTS AND USES THEREOF” (Yara International ASA, priority 2022, published 2025)

System: ruminal microorganisms
Assay: dual-flow continuous culture fermenters simulating rumen fermentation (Example 2)
Assay type: cell-based, Holstein dairy cows
Conditions: NPN 0.51 wt. % urea or 0.55 wt. % UB of diet DM
Protocol: In this example, an in vitro assay was performed using dual-flow continuous culture fermenters, aiming to simulate rumen fermentation.
Eight 1320 ml dual-flow continuous culture fermenters were used in two replicated periods. Each period consisted out of 5 days for adaptation of the ruminal fluid to the treatments and 3 days for sampling. On the first day of each period, all fermenters were inoculated with undiluted ruminal fluid filtered through two layers of cheesecloth to remove the feed particles. The fermentation conditions were constant, i.e. • a temperature of 39° C., • a pH of 6.4±0.05 by infusion of 3 N HCl or 5 N NaOH, • anaerobiosis with continued infusion of N2 gas at a rate of 40 ml/min, and • continued infusion of artificial saliva to obtain liquid and solid dilution rates of 10%/h and 5%/h, respectively.
The fermenters were fed 95 grams/day of dry matter of a diet formulated to meet or exceed current nutrients recommendations for lactating dairy cows, i.e. • 166 g/kg crude protein (CP), • 323 g/kg neutral detergent fiber (NDF), and • 201 g/kg acid detergent fiber (ADF),
And were fed in three daily administrations, i.e. at 7, 15 and 23 o'clock with a forage: concentrate diet in a range of 53:47.
Ruminal fluid was taken from two Holstein dairy cows fitted with ruminal cannulas fed with a 60:40 forage:concentrate diet with alfalfa and cracked grain (11 kg dry matter/cow/day). The afternoon before the ruminal extraction, the ruminant animals were not fed.
The NPN-dietary treatments were as follows: • Control: basal diet to which 0.51 wt. % urea was added, with wt. % on dry matter basis, • Diet: basal diet to which 0.55 wt. % of the mixture according to the present disclosure, with composition as in example 1, was added, with wt. % on dry matter basis.
On the second day of sampling, 4 ml of filtered fermenter fluid was taken 2 hours after the morning feeding to determine VFA-concentrations.
During sampling days, the collection vessels were maintained at 4° C. to prevent microbial activity. Solid and liquid effluents from 3 sampling days were composited and mixed within the fermenter and homogenized. Subsamples were taken for the analyses of the volatile fatty acids (VFA). The remainder of the sample was lyophilized (freeze drying) and the dry samples were analyzed for DM, ash, N and purines to calculate bacterial nitrogen and organic matter content (OM).
Bacterial cells were obtained from the fermenter flasks the last day of each experimental period. Solid and liquid associated bacteria were isolated using a combination several detachment procedures selected to obtain the maximum detachment without affecting the cell integrity. The bacterial cells were lyophilized and the dry samples were analyzed for dry matter (DM), ash, N and purines to calculate bacterial nitrogen.
Effluent dry matter (DM) was determined by lyophilizing 300 ml aliquots in triplicate. The DM content of the diets and bacterial samples were determined by drying samples for 24 hours in an 103° C. forced air oven (see AOAC, 1990; method 950.01).
Dry samples of diets, effluents and bacteria were ashed overnight at 550° C. in a muffle furnace (see AOAC, 1990, method 976.05) and organic matter (OM) was determined by difference. Total N of diets, effluents and bacterial samples were determined by a Kjeldhal method (AOAC, 1990; method 976.05). Sample crude protein (CP) was calculated as N×6.25. Effluent CP was determined in liquid samples. Crude protein degradation was calculated as the difference between CP in the diet minus CP in the effluent and expressed as wt. % of DM. The EMPS was determined by dividing bacterial N by fermented organic matter.
The fiber components of the diets and the effluents were analyzed sequentially using a thermostable alpha-amylase and sodium sulfite and expressed without residual ash.
The samples for the VFA-analysis were prepared as described by Jouany, J. P., and J. Senaud. […]

NC(N)=O [Urea, urea]
Acetate to propionate ratio: 3.5 | CP degradation: 47.7 % of dry matter | EMPS: 35.7 g bacterial N/kg of fermented organic matter | True digestibility DM: 53.53 wt. % of DM | True digestibility OM: 52.95 wt. % of DM | VFA Acetate: 62.92 | VFA Propionate: 18.18
